Measurements: patent publication US20210114983A1, “Cathepsin C inhibitors” (National Institute of Biological Sciences, Beijing, priority 2018, published 2021)

target: rhCatC (Cathepsin C) (Homo sapiens, UniProt P53634); experiment: In Vitro CatC Enzyme Assay; assay type: biochemical; conditions: read-out: Cat C Enzy (Cathepsin C inhibitory activity, IC50)
Protocol: In Vitro CatC Enzyme Assay
The CatC enzyme assay was performed in black 384-well plate. Firstly, rhCatC (440 nM) was activated by rhCatL (300 nM) in activation buffer (25 mM MES, 5 mM DTT, pH 6.0) at room temperature for 2 h and then activated rhCatC was diluted to 4.4 nM in assay buffer (25 mM MES, 50 mM NaCl, 5 mM DTT, 0.01% (v/v) Triton X100, pH 6.0), 14 μL activated rhCatC and 1 μL compound in 10% DMSO or 10% DMSO were incubated at room temperature for 3 h, and 5 μL substrate (Gly-Phe-AFC) was added to final concentration of 100 μM. After 60 min reaction, the product of the reaction was measured in the Enspire plate reader using Ex λ400 nm and Em λ505 nm for AFC. A standard irreversible CatC inhibitor 10 by AstraZeneca (J. Med. Chem. 2014, 57, 2357-2367) was used as an inhibitor control in the assay.

Sequence of rhCatC (Cathepsin C) (P53634 25-134 limits assumed): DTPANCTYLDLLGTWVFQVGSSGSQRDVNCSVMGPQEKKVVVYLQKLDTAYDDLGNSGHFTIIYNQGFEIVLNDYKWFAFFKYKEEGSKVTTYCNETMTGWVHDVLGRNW
Sequence of rhCatC (Cathepsin C) (P53634 231-394 limits assumed): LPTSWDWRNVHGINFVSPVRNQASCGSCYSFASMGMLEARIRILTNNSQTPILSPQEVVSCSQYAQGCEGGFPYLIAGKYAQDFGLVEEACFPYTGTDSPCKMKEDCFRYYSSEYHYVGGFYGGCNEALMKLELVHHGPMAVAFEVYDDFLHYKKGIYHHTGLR
Sequence of rhCatC (Cathepsin C) (P53634 395-463 limits assumed): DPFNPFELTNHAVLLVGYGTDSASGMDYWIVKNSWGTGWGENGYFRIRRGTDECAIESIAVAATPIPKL

Structure (SMILES) | IC50
C=CC(=O)Nc1cccc(Oc2nc(Nc3ccc(N4CCN(C)CC4)cc3OC)ccc2Cl)c1 [Compound 1, N-(3-((3-chloro-6-((2-methoxy-4-(4-methylpiperazin-1-yl)phenyl)amino)pyridin-2-yl)oxy)phenyl)acrylamide] | 300 to 30000 nM
C=CC(=O)Nc1cccc(Oc2nc(Nc3ccc(N4CCOCC4)cc3)ccc2Cl)c1 [Compound 2, N-(3-((3-chloro-6-((4-morpholinophenyl)amino)pyridin-2-yl)oxy)phenyl)acrylamide] | 300 to 30000 nM
C=CC(=O)Nc1cccc(Oc2nc(Nc3ccccc3)ccc2Cl)c1 [Compound 3, N-(3-((3-chloro-6-(phenylamino)pyridin-2-yl)oxy)phenyl)acrylamide] | 300 to 30000 nM
C=CC(=O)Nc1cccc(Oc2nc(Nc3ccc(N4CCN(C)CC4)cc3)ccc2Cl)c1 [Compound 4, N-(3-((3-chloro-6-((4-(4-methylpiperazin-1-yl)phenyl)amino)pyridin-2-yl)oxy)phenyl)acrylamide] | 300 to 30000 nM
C=CC(=O)Nc1cccc(Oc2cccc(Nc3ccc(N4CCN(C)CC4)cc3)n2)c1 [Compound 5, N-(3-((6-((4-(4-methylpiperazin-1-yl)phenyl)amino)pyridin-2-yl)oxy)phenyl)acrylamide] | 300 to 30000 nM
C=CC(=O)Nc1cccc(Oc2nc(Nc3cccc(CN)c3)ccc2Cl)c1 [Compound 6, N-(3-((6-((3-(aminomethyl)phenyl)amino)-3-chloropyridin-2-yl)oxy)phenyl)acrylamide] | 300 to 30000 nM
C=CC(=O)Nc1cccc(Oc2nc(Nc3ccc(N4CCNCC4)cc3)ccc2Cl)c1 [Compound 7, N-(3-((3-chloro-6-((4-(piperazin-1-yl)phenyl)amino)pyridin-2-yl)oxy)phenyl)acrylamide] | 300 to 30000 nM
C/C=C/C(=O)Nc1cccc(Oc2nc(Nc3ccc(N4CCNCC4)cc3)ccc2Cl)c1 [Compound 8] | 300 to 30000 nM
C=CC(=O)Nc1cccc(Oc2nc(Nc3ccc(N4CCC[C@@H](N)C4)cc3OC)ccc2Cl)c1 [Compound 9, (R)-N-(3-((6-((4-(3-aminopiperidin-1-yl)-2-methoxyphenyl)amino)-3-chloropyridin-2-yl)oxy)phenyl)acrylamide] | 300 to 30000 nM
C=CC(=O)Nc1cccc(Oc2nc(Nc3ccc(CCN)cc3)ccc2Cl)c1 [Compound 10, N-(3-((6-((4-(2-aminoethyl)phenyl)amino)-3-chloropyridin-2-yl)oxy)phenyl)acrylamide] | 300 to 30000 nM
C=CC(=O)Nc1cccc(Oc2nc(Nc3ccc(N4CCN(C)CC4)c(OC)c3)ccc2Cl)c1 [Compound 11, N-(3-((3-chloro-6-((3-methoxy-4-(4-methylpiperazin-1-yl)phenyl)amino)pyridin-2-yl)oxy)phenyl)acrylamide] | 300 to 30000 nM
COc1cc(N2CCN(C)CC2)ccc1Nc1ccc(Cl)c(Oc2cccc(NC(=O)C=C(C)C)c2)n1 [Compound 12, N-(3-((3-chloro-6-((2-methoxy-4-(4-methylpiperazin-1-yl)phenyl)amino)pyridin-2-yl)oxy)phenyl)-3-methylbut-2-enamide] | 300 to 30000 nM
C#CC(=O)Nc1cccc(Oc2nc(Nc3ccc(N4CCN(C)CC4)cc3OC)ccc2Cl)c1 [Compound 13, N-(3-((3-chloro-6-((2-methoxy-4-(4-methylpiperazin-1-yl)phenyl)amino)pyridin-2-yl)oxy)phenyl)propiolamide] | 300 to 30000 nM
C=CC(=O)Nc1cccc(Oc2nc(Nc3ccc(N4CCN(CC5CC5)CC4)cc3)ccc2Cl)c1 [Compound 14, N-(3-((3-chloro-6-((4-(4-(cyclopropylmethyl)piperazin-1-yl)phenyl)amino)pyridin-2-yl)oxy)phenyl)acrylamide] | 300 to 30000 nM
C=CC(=O)Nc1cccc(Oc2nc(Nc3ccc(N4CCN(CC5CCCC5)CC4)cc3)ccc2Cl)c1 [Compound 15, N-(3-((3-chloro-6-((4-(4-(cyclopentylmethyl)piperazin-1-yl)phenyl)amino)pyridin-2-yl)oxy)phenyl)acrylamide] | 300 to 30000 nM
C=CC(=O)Nc1cccc(Oc2nc(Nc3ccc(N4CCN(C)CC4)cc3OC)ccc2C(F)(F)F)c1 [Compound 16, N-(3-((6-((2-methoxy-4-(4-methylpiperazin-1-yl)phenyl)amino)-3-(trifluoromethyl)pyridin-2-yl)oxy)phenyl)acrylamide] | 300 to 30000 nM
C=CC(=O)Nc1cccc(Oc2nc(Nc3ccc(N4CCN(C)CC4)cc3OC)ccc2C#N)c1 [Compound 17, N-(3-((3-cyano-6-((2-methoxy-4-(4-methylpiperazin-1-yl)phenyl)amino)pyridin-2-yl)oxy)phenyl)acrylamide] | 300 to 30000 nM

Structure (SMILES) | IC50
C=CC(=O)Nc1cc(Oc2nc(Nc3ccc(N4CCN(C)CC4)cc3OC)ccc2Cl)ccc1C [Compound 18, N-(5-((3-chloro-6-((2-methoxy-4-(4-methylpiperazin-1-yl)phenyl)amino)pyridin-2-yl)oxy)-2-methylphenyl)acrylamide] | 300 to 30000 nM
C=CC(=O)Nc1cccc(Nc2nc(Nc3ccc(N4CCN(C)CC4)cc3OC)ccc2Cl)c1 [Compound 19, N-(3-((3-chloro-6-((2-methoxy-4-(4-methylpiperazin-1-yl)phenyl)amino)pyridin-2-yl)amino)phenyl)acrylamide] | 300 to 30000 nM
C=CC(=O)Nc1cccc(Oc2nc(Nc3ccc(N4CCN(C)CC4)cc3OC)ccc2N2CCCC2)c1 [Compound 20, N-(3-((6-((2-methoxy-4-(4-methylpiperazin-1-yl)phenyl)amino)-3-(pyrrolidin-1-yl)pyridin-2-yl)oxy)phenyl)acrylamide] | 3 to 300 nM
C=CC(=O)Nc1cccc(Oc2cccc(Nc3ccc(N4CCN(C)CC4)cc3OC)n2)c1 [Compound 21, N-(3-((6-((2-methoxy-4-(4-methylpiperazin-1-yl)phenyl)amino)pyridin-2-yl)oxy)phenyl)acrylamide] | 300 to 30000 nM
C=CC(=O)Nc1cccc(Oc2nc(Nc3ccc(N4CCN(C)CC4)cc3OC)ccc2N(C)C)c1 [Compound 22, N-(3-((3-(dimethylamino)-6-((2-methoxy-4-(4-methylpiperazin-1-yl)phenyl)amino)pyridin-2-yl)ox)phenyl)acrylamide] | 300 to 30000 nM
C#Cc1ccc(Nc2ccc(N3CCN(C)CC3)cc2OC)nc1Oc1cccc(NC(=O)C=C)c1 [Compound 23, N-(3-((3-ethynyl-6-((2-methoxy-4-(4-methylpiperazin-1-yl)phenyl)amino)pyridin-2-yl)oxy)phenyl)acrylamide] | 300 to 30000 nM
C=CC(=O)Nc1cccc(N(C)c2cccc(Nc3ccc(N4CCN(C)CC4)cc3OC)n2)c1 [Compound 24, N-(3-((6-((2-methoxy-4-(4-methylpiperazin-1-yl)phenyl)amino)pyridin-2-yl)(methyl)amino)phenyl)acrylamide] | 300 to 30000 nM
C=CC(=O)Nc1cccc(N(Cc2ccccc2)c2cccc(Nc3ccc(N4CCN(C)CC4)cc3OC)n2)c1 [Compound 25, N-(3-(benzyl(6-((2-methoxy-4-(4-methylpiperazin-1-yl)phenyl)amino)pyridin-2-yl)amino)phenyl)acrylamide] | 300 to 30000 nM
C=CC(=O)Nc1cccc(Oc2nc(N(C)c3ccc(N4CCNCC4)cc3)ccc2Cl)c1 [Compound 26] | 300 to 30000 nM
C=CC(=O)Nc1cccc(Oc2nc(N(Cc3ccccc3)c3ccc(N4CCNCC4)cc3)ccc2Cl)c1 [Compound 27, N-(3-((6-(benzyl(4-(piperazin-1-yl)phenyl)amino)-3-chloropyridin-2-yl)oxy)phenyl)acrylamide] | 300 to 30000 nM
C=CC(=O)Nc1cc(Oc2nc(Nc3ccc(N4CCN(C)CC4)cc3OC)ccc2N2CCCC2)ccc1C [Compound 29, N-(5-((6-((2-methoxy-4-(4-methylpiperazin-1-yl)phenyl)amino)-3-(pyrrolidin-1-yl)pyridin-2-yl)oxy)-2-methylphenyl)acrylamide] | 3 to 300 nM
C=CC(=O)Nc1cc(Oc2nc(Nc3ccc(N4CCN(C)CC4)cc3OC)ccc2N2CCOCC2)ccc1C [Compound 30, N-(5-((6-((2-methoxy-4-(4-methylpiperazin-1-yl)phenyl)amino)-3-morpholinopyridin-2-yl)oxy)-2-methylphenyl)acrylamide] | 3 to 300 nM
C=CC(=O)Nc1cc(Oc2nc(Nc3ccc(N4CCN(C)CC4)cc3OC)ccc2N2CCC(O)C2)ccc1C (stereo not drawn) [Compound 31, N-(5-((3-(3-hydroxypyrrolidin-1-yl)-6-((2-methoxy-4-(4-methylpiperazin-1-yl)phenyl)amino)pyridin-2-yl)oxy)-2-methylphenyl)acrylamide] | 3 to 300 nM
C=CC(=O)Nc1cc(Oc2nc(Nc3ccc(N4CCN(C)CC4)cc3OC)ccc2N2CCCC(O)C2)ccc1C (stereo not drawn) [Compound 32, N-(5-((3-(3-hydroxypiperidin-1-yl)-6-((2-methoxy-4-(4-methylpiperazin-1-yl)phenyl)amino)pyridin-2-yl)oxy)-2-methylphenyl)acrylamide] | 3 to 300 nM
C=CC(=O)Nc1cc(Oc2nc(Nc3ccc(N4CCN(C)CC4)cc3OC)ccc2N2CCN(C)CC2)ccc1C [Compound 33, N-(5-((6-((2-methoxy-4-(4-methylpiperazin-1-yl)phenyl)amino)-3-(4-methylpiperazin-1-yl)pyridin-2-yl)oxy)-2-methylphenyl)acrylamide] | 3 to 300 nM
C=CC(=O)Nc1cc(Oc2nc(Nc3ccc(N4CCN(C)CC4)cc3OC)ccc2-c2ccccc2)ccc1C [Compound 34, N-(5-((6-((2-methoxy-4-(4-methylpiperazin-1-yl)phenyl)amino)-3-phenylpyridin-2-yl)oxy)-2-methylphenyl)acrylamide] | 3 to 300 nM
